What was measured:
[1] = test system: diclofenac induced gastric mucosal injury; test: Diclofenac-induced gastric mucosal injury (ulcer index); assay type: in vivo, Sprague-Dwaley rats; details: diclofenac 75 mg kg^−1 oral
Description: Sprague-Dwaley rats (180-220 gm) were used for this study. Each group (control or experimental) of animals was maintained at 24±2° C. with 12 hrs lights and dark cycle. The animals were fasted for 24 hrs before the start of experiments. They were provided with water ad libitum to avoid food-induced increased acid secretion and its effect on gastric lesions. Gastric mucosal ulcer was developed by indomethacin as described (Pal, C; et al. Free Radic Biol Med, 49(2), 258-267; 2010, Biswas, K.; et al. J. Biol. Chem. 278:10993-11001; 2003, Bandyopadhyay, U.; et al. Life Sci. 71:2845-2865; 2002). Briefly, all the animals were divided into control, indomethacin and test compound group. Oral administration of indomethacin at a dose of 48 mg kg^−1 b.w was given to the fasted animals to induce gastric ulcer. In the drug-pretreated groups, the animals were given drug (50, 20, 10, 5, 3, 1 mg kg^−1 b.w.) intraperitoneally 30 min prior to ulcer induction with indomethacin. Control group received vehicle only but no indomethacin. After 4 hrs of indomethacin treatment, the animals were sacrificed under proper euthanasia and stomachs were collected. The mucosal injury was scored as ulcer index as follows: 0=no pathology; 1=one pinhead ulcer. The sum of the total scores divided by the number of animals gave the ulcer index. All the in vivo studies were done in accordance with the institute animal ethical committee guidelines. To see the effect of SEGA on diclofenac induced gastric mucosal injury, gastric mucosal damage was developed by the oral administration of diclofenac (75 mg kg^−1) and the rest of the experiment was carried out in a similar way as described for indomethacin. Diclofenac produced pinhead ulcer like indomethacin and the mucosal injury was scored as ulcer index as described above. Ethanol-induced gastric mucosal injury was developed with oral administration of 1 ml of 50% ethanol (Banerjee, R. K. (2002) Life Sci 71, 2845-2865) and after 4 hrs the animals were sacrificed and cold-restrain stress induced mucosal injury was developed by immobilizing the animals at 4° C. for 3.5 hrs (Banerjee, R. K. (2002) Life Sci 71, 2845-2865, (2003) J Biol Chem 278, 10993-11001).

[2] = test system: intra mitochondrial superoxide; test: Intra mitochondrial superoxide (MitoSOX); assay type: cell-based, rat; details: indomethacin-treated cultured gastric mucosal cells; pretreatment
Description: Isolated mucosal cells from both control and indomethacin-treated cultured gastric mucosa were used for detection of intra mitochondrial superoxide using MitoSOX, an superoxide-sensitive fluorescence probe following the protocol as described in the product catalogue (Maity, P.; et al. J. Biol. Chem. 284:3058-3068; 2009). Cells were stained with the respective fluorescent probe in HB SS (pH 7.4) and incubated for 15 min at 37° C. in the dark as described in the manufacture's protocols. After the incubation, cells were washed with HBSS three times and continued for fluorescence microscopy (Leica, DM-2500, Leica Microsystems). Staining of MitoSOX was visualized using Red filter.

gastric mucosal cells = test: TUNEL assay of gastric mucosa in vivo; design: species or system rats
[3] = test system: indomethacin-induced gastric mucosal injury; test: Healing effect on indomethacin-induced gastric damage; assay type: in vivo, Sprague-Dwaley rats; details: 50 mg kg^−1 i.p. 4 hrs after indomethacin 48 mg kg^−1
Description: Gastric mucosal injury was first induced with indomethacin treatment at a dose of 48 mg kg^−1. After 4 hrs of the induction of mucosal injury, some of the animals were divided into two different groups (n=6), i.e., auto healing and SEGA-induced healing. This time point was referred as ‘0’ hr of healing. At this point of time, in the SEGA-induced healing group, SEGA was administered (i.p) at the dose of 50 mg kg^−1 (this dose was selected from the dose-response curve). The animals, which were not treated with SEGA and received only indomethacin, served as the auto healing group. Starting from 0 hr, the stomach was dissected out from all groups at the intervals of 2 hrs, 4 hrs and 8 hrs respectively for measuring ulcer index as described (Maity, P.; et al. J. Biol. Chem. 283:14391-14401; 2008) and histological studies.

For O=C(NCCc1c[nH]c2ccc(O)cc12)c1cc(O)c(O)c(O)c1 [Compound 3a, 3,4,5-trihydroxy-N-(2-(5-hydroxy-1H-indol-3-yl)ethyl)benzamide], the “protection, diclofenac induced ulcer” value ([1]; dose 1 mg kg^−1 i.p.) was 22%, the “protection, diclofenac induced ulcer” value ([1]; dose 3 mg kg^−1 i.p.) was 25% and the “protection, diclofenac induced ulcer” value ([1]; dose 5 mg kg^−1 i.p.) was 42%. For the same compound, the “protection, diclofenac induced ulcer” value ([1]; dose 10 mg kg^−1 i.p.) was 57%, the “protection, diclofenac induced ulcer” value ([1]; dose 20 mg kg^−1 i.p.) was 72% and the “protection, diclofenac induced ulcer” value ([1]; dose 50 mg kg^−1 i.p.) was 82%. The “mitochondrial superoxides (mitoSOX)” value [2] was “restores all the NSAIDs-induced mitochondrial dysfuctions”, the “indomethacin-induced apoptosis (TUNEL) in vivo” value (gastric mucosal cells) was “prevents the indomethcin-induced apoptosis” and the “healing of already damaged gastric mucosa (ulcer index)” value [3] was “accelerates the healing process”.

From patent publication US8901317B2, “Tryptamine derivatives, their preparation and their use in gastropathy” (Council of Scientific & Industrial Research, priority 2010, dated 2014)
